Results reported in patent US20230242585A1, “IMMUNOMODULATORS” (Bristol-Myers Squibb Company, priority 2020, published 2023).
Starred links: 1 amine or outer side, 2 acyl side, 3 side chain; linkers in the order of their positions; H or OH if unused. Positions of bridges follow the written chain, without caps; N, C: chain ends. Non-standard residues stand in square brackets, D forms with d. Residues, ends and D or L forms follow the SMILES beside them. X30 = O=C([C@H](CCNC[C@H](O)[C@@H](O)[C@H](O[C@H]1O[C@H](CO)[C@@H](O)[C@H](O)[C@H]1O)[C@H](O)CO)N[*:1])[*:2]; X29 = O=C([C@H](CNC[C@H](O)[C@@H](O)[C@H](O[C@H]1O[C@H](CO)[C@@H](O)[C@H](O)[C@H]1O)[C@H](O)CO)N[*:1])[*:2]; X25 = CC(=O)N[C@@H](CNCC[C@H](N[*:1])C(=O)[*:2])[C@@H](O)[C@H](O)[C@H](O)CO; X24 = CC(=O)N[C@@H](CNC[C@H](N[*:1])C(=O)[*:2])[C@@H](O)[C@H](O)[C@H](O)CO; X1 = O=C([C@H](CNC[C@H](O)[C@H](O)[C@H](O)[C@H](O)CO)N[*:1])[*:2]; X68 = O=C([C@H](CCNC[C@@H](O)[C@H](O)[C@H](O)CO)N[*:1])[*:2]; X67 = O=C([C@H](CNC[C@@H](O)[C@H](O)[C@H](O)CO)N[*:1])[*:2]; Trp(1-CH2COOH) = N[C@@H](Cc1cn(CC(=O)O)c2ccccc12)C(=O)O; Hyp = O=C(O)[C@@H]1C[C@@H](O)CN1; NMeNle = CCCC[C@H](NC)C(=O)O; NMeA = CN[C@@H](C)C(=O)O; Dab = NCC[C@H](N)C(=O)O

target: T1, PD-1/PD-L1 (Homo sapiens, UniProt Q9NZQ7); test: PD-1/PD-L1 Homogenous Time-Resolved Fluorescence (HTRF) binding assay; settings: PD-L1-His 10 nM, PD-1-Ig 20 nM
T1 construct: TVMV protease site (linker) (C); made in house; host or cells: HEK293T cells
T1 sequence (Q9NZQ7 18-239): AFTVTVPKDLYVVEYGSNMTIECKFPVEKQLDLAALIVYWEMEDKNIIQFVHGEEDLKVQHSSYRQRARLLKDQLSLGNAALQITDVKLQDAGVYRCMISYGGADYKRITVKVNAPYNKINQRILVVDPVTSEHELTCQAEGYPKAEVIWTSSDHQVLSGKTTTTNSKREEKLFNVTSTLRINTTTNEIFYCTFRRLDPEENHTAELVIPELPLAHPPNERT
Source text: The ability of the compounds of formula (I) to bind to PD-L1 was investigated using a PD-1/PD-L1 Homogenous Time-Resolved Fluorescence (HTRF) binding assay.
The interaction of PD-1 and PD-L1 can be assessed using soluble, purified preparations of the extracellular domains of the two proteins. The PD-1 and PD-L1 protein extracellular domains were expressed as fusion proteins with detection tags, for PD-1, the tag was the Fc portion of Immunoglobulin (PD-1-Ig) and for PD-L1 it was the 6 histidine motif (PD-L1-His). All binding studies were performed in an HTRF assay buffer consisting of dPBS supplemented with 0.1% […] bovine serum albumin and 0.05% (v/v) Tween-20. For the h/PD-L1-His binding assay, inhibitors were pre-incubated with PD-L1-His (10 nM final) for 15 m in 4 µl of assay buffer, followed by addition of PD-1-Ig (20 nM final) in 1 µl of assay buffer and further incubation for 15 m. HTRF detection was achieved using europium crypate-labeled anti-Ig (1 nM final) and allophycocyanin (APC) labeled anti-His (20 nM final). Antibodies were diluted in HTRF detection buffer and 5 µl was dispensed on top of the binding reaction. The reaction mixture was allowed to equilibrate for 30 minutes and the resulting signal (665 nm/620 nm ratio) was obtained using an EnVision fluorometer. Additional binding assays were established between the human proteins PD-1-Ig/PD-L2-His (20 & 5 nM, respectively) and CD80-His/PD-L1-Ig (100 & 10 nM, respectively).
Recombinant Proteins: Human PD-1 (25-167) with a C-terminal human Fc domain of immunoglobulin G (Ig) epitope tag [hPD-1 (25-167)-3S-IG] and human PD-L1 (18-239) with a C-terminal His epitope tag [hPD-L1(18-239)-TVMV-His] were expressed in HEK293T cells and purified sequentially by ProteinA affinity chromatography and size exclusion chromatography. Human PD-L2-His and CD80-His was obtained through commercial sources.
Table 1 lists the IC50 values for representative examples of this disclosure measured in the PD-1/PD-L1 Homogenous Time-Resolved Fluorescence (HTRF) binding assay.

SMILES | IC50
CCCC[C@H]1C(=O)N(C)[C@@H](CCCC)C(=O)N[C@@H](CC(C)C)C(=O)N[C@H](C(=O)NCC(N)=O)CSCC(=O)N[C@@H](Cc2ccc(O)cc2)C(=O)N(C)[C@@H](C)C(=O)N[C@@H](CC(N)=O)C(=O)N2CCC[C@H]2C(=O)N[C@@H](CNC[C@H](O)[C@H](O)[C@H](O)[C@H](O)CO)C(=O)N[C@@H](CC(C)C)C(=O)N2C[C@H](O)C[C@H]2C(=O)N[C@@H](Cc2c[nH]c3ccccc23)C(=O)N[C@@H](CCN)C(=O)N[C@@H](Cc2cn(CC(=O)O)c3ccccc23)C(=O)N1C [Example 2007] ({CH2CO}-Y[NMeA]NP[X1]L[Hyp]W[Dab][Trp(1-CH2COOH)][NMeNle][NMeNle]LCG-NH2; thioether N-14) | 5.1 nM
CCCC[C@H]1C(=O)N(C)[C@@H](CCCC)C(=O)N[C@@H](CC(C)C)C(=O)N[C@H](C(=O)NCC(N)=O)CSCC(=O)N[C@@H](Cc2ccc(O)cc2)C(=O)N(C)[C@@H](C)C(=O)N[C@@H](CC(N)=O)C(=O)N2CCC[C@H]2C(=O)N[C@@H](CNC[C@H](NC(C)=O)[C@@H](O)[C@H](O)[C@H](O)CO)C(=O)N[C@@H](CC(C)C)C(=O)N2C[C@H](O)C[C@H]2C(=O)N[C@@H](Cc2c[nH]c3ccccc23)C(=O)N[C@@H](CCNC[C@H](NC(C)=O)[C@@H](O)[C@H](O)[C@H](O)CO)C(=O)N[C@@H](Cc2cn(CC(=O)O)c3ccccc23)C(=O)N1C [Example 2009] ({CH2CO}-Y[NMeA]NP[X24]L[Hyp]W[X25][Trp(1-CH2COOH)][NMeNle][NMeNle]LCG-NH2; thioether N-14) | 5.7 nM
CCCC[C@H]1C(=O)N(C)[C@@H](CCCC)C(=O)N[C@@H](CC(C)C)C(=O)N[C@H](C(=O)NCC(N)=O)CSCC(=O)N[C@@H](Cc2ccc(O)cc2)C(=O)N(C)[C@@H](C)C(=O)N[C@@H](CC(N)=O)C(=O)N2CCC[C@H]2C(=O)N[C@@H](CNC[C@H](O)[C@@H](O)[C@H](O[C@H]2O[C@H](CO)[C@@H](O)[C@H](O)[C@H]2O)[C@H](O)CO)C(=O)N[C@@H](CC(C)C)C(=O)N2C[C@H](O)C[C@H]2C(=O)N[C@@H](Cc2c[nH]c3ccccc23)C(=O)N[C@@H](CCNC[C@H](O)[C@@H](O)[C@H](O[C@H]2O[C@H](CO)[C@@H](O)[C@H](O)[C@H]2O)[C@H](O)CO)C(=O)N[C@@H](Cc2cn(CC(=O)O)c3ccccc23)C(=O)N1C [Example 2010] ({CH2CO}-Y[NMeA]NP[X29]L[Hyp]W[X30][Trp(1-CH2COOH)][NMeNle][NMeNle]LCG-NH2; thioether N-14) | 2.1 nM
CCCC[C@H]1C(=O)N(C)[C@@H](CCCC)C(=O)N[C@@H](CC(C)C)C(=O)N[C@H](C(=O)NCC(N)=O)CSCC(=O)N[C@@H](Cc2ccc(O)cc2)C(=O)N(C)[C@@H](C)C(=O)N[C@@H](CC(N)=O)C(=O)N2CCC[C@H]2C(=O)N[C@@H](CNC[C@H](O)[C@@H](O)[C@H](O[C@H]2O[C@H](CO)[C@@H](O)[C@H](O)[C@H]2O)[C@H](O)CO)C(=O)N[C@@H](CC(C)C)C(=O)N2C[C@H](O)C[C@H]2C(=O)N[C@@H](Cc2c[nH]c3ccccc23)C(=O)N[C@@H](CCN)C(=O)N[C@@H](Cc2cn(CC(=O)O)c3ccccc23)C(=O)N1C [Example 2011] ({CH2CO}-Y[NMeA]NP[X29]L[Hyp]W[Dab][Trp(1-CH2COOH)][NMeNle][NMeNle]LCG-NH2; thioether N-14) | 8.8 nM
CCCC[C@H]1C(=O)N(C)[C@@H](CCCC)C(=O)N[C@@H](CC(C)C)C(=O)N[C@H](C(=O)NCC(N)=O)CSCC(=O)N[C@@H](Cc2ccc(O)cc2)C(=O)N(C)[C@@H](C)C(=O)N[C@@H](CC(N)=O)C(=O)N2CCC[C@H]2C(=O)N[C@@H](CNC[C@@H](O)[C@H](O)[C@H](O)CO)C(=O)N[C@@H](CC(C)C)C(=O)N2C[C@H](O)C[C@H]2C(=O)N[C@@H](Cc2c[nH]c3ccccc23)C(=O)N[C@@H](CCNC[C@@H](O)[C@H](O)[C@H](O)CO)C(=O)N[C@@H](Cc2cn(CC(=O)O)c3ccccc23)C(=O)N1C [Example 2012] ({CH2CO}-Y[NMeA]NP[X67]L[Hyp]W[X68][Trp(1-CH2COOH)][NMeNle][NMeNle]LCG-NH2; thioether N-14) | 0.7 nM
